Test systems include SNB-19 CNS; OVCAR-3 ovarian; RPMI-8226 leukemia; HCC-2998 colon; DU-145 prostate; OVCAR-4 ovarian; UACC-62 melanoma; NCI/ADR-RES ovarian; A498 renal; SW-620 colon.
Test in all cases: NCI-60 cell line screen, 48 h

Each structure is given as a SMILES string.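 Growth conditions: 96-well plates. Treatment: test compound, 48 hours, 5 concentrations. Analysis: linear interpolation between bracketing concentrations; unreached endpoints set to highest concentration. At the GI50, growth is halved. TGI: total growth inhibition.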 Bounds are passed on as bounds.

On to `Cc1cc(Cl)nc(N(CCCNc2ccnc3cc(Cl)ccc23)Cc2ccco2)n1`, for which the GI50 in the assay on SNB-19 CNS was 3.46 µM; in the assay on OVCAR-3 ovarian, 2.48 µM; in the assay with RPMI-8226 leukemia it was 1.04 µM; in the assay on HCC-2998 colon it was 1.97 µM; in the assay with DU-145 prostate, 3.48 µM; with OVCAR-4 ovarian, 2.31 µM. The GI50 with UACC-62 melanoma was 2.32 µM; with NCI/ADR-RES ovarian it was 1.76 µM; in the assay on A498 renal, 1.55 µM; in the assay on SW-620 colon, 2.5 µM. The TGI amounted to 14.7 µM in the assay with SNB-19 CNS; 10.3 µM with OVCAR-3 ovarian; 3.19 µM in the assay on RPMI-8226 leukemia; 5.67 µM in the assay with HCC-2998 colon; 14.7 µM with DU-145 prostate; 12.2 µM in the assay on OVCAR-4 ovarian. Also, the TGI was determined as 6.8 µM in the assay with UACC-62 melanoma, 6.87 µM with NCI/ADR-RES ovarian, 7.99 µM with A498 renal and 10.3 µM in the assay on SW-620 colon.
For the molecule `C=C1C(=O)OC2/C=C(/C)C(OC(C)=O)C/C=C(\C)C(OC(=O)C3(C)OC3C)C(O)C12` (stereo not given), the TGI in the assay on SNB-19 CNS, with OVCAR-3 ovarian, in the assay with RPMI-8226 leukemia, in the assay with HCC-2998 colon, with DU-145 prostate and in the assay with OVCAR-4 ovarian was over 100 µM throughout. For the same molecule, the TGI in the assay on UACC-62 melanoma, in the assay with NCI/ADR-RES ovarian, in the assay with A498 renal and in the assay with SW-620 colon was over 100 µM throughout.
Consider `CC[n+]1c(/C=C/C=C2\N(C)c3ccccc3C2(C)C)sc2ccccc21`, for which the GI50 in the assay with SNB-19 CNS was 4.1 µM; in the assay with OVCAR-3 ovarian it was 3.97 µM; in the assay on RPMI-8226 leukemia, 2.99 µM; with HCC-2998 colon it was 3.86 µM; in the assay with DU-145 prostate it was 4.15 µM; in the assay with OVCAR-4 ovarian it was 3.85 µM. In addition, the GI50 is 4.03 µM in the assay with UACC-62 melanoma, 4.26 µM in the assay on NCI/ADR-RES ovarian, 5.04 µM with A498 renal and 4.19 µM with SW-620 colon. Further, the TGI in the assay on SNB-19 CNS stood at 7.8 µM; in the assay with OVCAR-3 ovarian it was 7.52 µM; in the assay with RPMI-8226 leukemia, 10.1 µM; in the assay on HCC-2998 colon it was 7.81 µM; with DU-145 prostate, 7.76 µM; in the assay with OVCAR-4 ovarian, 7.19 µM. Also, the TGI in the assay on UACC-62 melanoma turned out to be 8.32 µM; with NCI/ADR-RES ovarian, 8.9 µM; in the assay with A498 renal, 12 µM; in the assay with SW-620 colon it was 8.27 µM.
Consider `CN1CSC(=S)N(Cc2ccccc2)C1`, for which the GI50 with SNB-19 CNS is 77.1 µM; in the assay with OVCAR-3 ovarian, 3.96 µM; in the assay on RPMI-8226 leukemia it was 5.54 µM; in the assay on HCC-2998 colon, 71 µM; in the assay with DU-145 prostate it was 2.05 µM; with OVCAR-4 ovarian, 14.2 µM. The GI50 was 13.4 µM in the assay with UACC-62 melanoma, 28.2 µM with NCI/ADR-RES ovarian, 0.017 µM with A498 renal and 3.16 µM with SW-620 colon. For the same molecule, the TGI in the assay on SNB-19 CNS is over 100 µM; with OVCAR-3 ovarian it was 15 µM; in the assay with RPMI-8226 leukemia it was 79.7 µM; in the assay on HCC-2998 colon it was over 100 µM; in the assay on DU-145 prostate, 6.21 µM; with OVCAR-4 ovarian, 27.8 µM. Also, the TGI in the assay with UACC-62 melanoma is 36 µM; in the assay with NCI/ADR-RES ovarian, over 100 µM; in the assay with A498 renal, 31.2 µM; with SW-620 colon it was 12.4 µM.
Take `N#CC1c2ccccc2C=CN1C(=O)N(c1ccccc1)c1ccccc1` (stereo not given): the GI50 in the assay on SNB-19 CNS was 13.8 µM; in the assay on OVCAR-3 ovarian, 1.76 µM; with RPMI-8226 leukemia, 2.56 µM; with HCC-2998 colon it was 11.1 µM; in the assay on DU-145 prostate, 3.04 µM; in the assay with OVCAR-4 ovarian it was 2.99 µM. For the same molecule, the GI50 in the assay with UACC-62 melanoma was 2.13 µM; with NCI/ADR-RES ovarian it was 5.52 µM; with A498 renal, 7.14 µM; in the assay on SW-620 colon, 2.27 µM. For the same molecule, the TGI in the assay with SNB-19 CNS stood at 26.8 µM; in the assay with OVCAR-3 ovarian, 3.18 µM; with RPMI-8226 leukemia, 6.87 µM; in the assay with HCC-2998 colon, 23.9 µM; in the assay on DU-145 prostate it was 9.36 µM; in the assay on OVCAR-4 ovarian it was 8.29 µM. In addition, the TGI in the assay with UACC-62 melanoma amounted to 5.57 µM; in the assay with NCI/ADR-RES ovarian, 34 µM; with A498 renal, 24.4 µM; with SW-620 colon it was 5.3 µM.
Take `O=c1[nH]cnc2c1nnn2CCCCCCCCCCCCn1nnc2c(=O)[nH]cnc21`: the TGI in the assay on SNB-19 CNS is 54.9 µM; in the assay on OVCAR-3 ovarian, over 100 µM; with RPMI-8226 leukemia, over 100 µM; in the assay with HCC-2998 colon it was over 100 µM; in the assay on DU-145 prostate, over 100 µM; in the assay with OVCAR-4 ovarian, over 100 µM. Also, the TGI was over 78 µM with UACC-62 melanoma, over 100 µM in the assay with NCI/ADR-RES ovarian, 53.6 µM with A498 renal and over 100 µM in the assay on SW-620 colon.
Take `Cn1cc(C2=C(c3cn(CCCCCSC(=N)N)c4ccccc34)C(=O)NC2=O)c2ccccc21`: the GI50 in the assay on SNB-19 CNS is 3.52 µM; with OVCAR-3 ovarian it was 3.22 µM; in the assay with RPMI-8226 leukemia, 4.13 µM; with HCC-2998 colon it was 3.56 µM; in the assay with DU-145 prostate, 3.58 µM; with OVCAR-4 ovarian, 3.16 µM. Further, the GI50 was 3.87 µM in the assay on UACC-62 melanoma, 8.18 µM in the assay on NCI/ADR-RES ovarian, 3.65 µM in the assay on A498 renal and 2.96 µM in the assay on SW-620 colon. Moreover, the TGI with SNB-19 CNS amounted to 6.82 µM; in the assay on OVCAR-3 ovarian it was 6.55 µM; with RPMI-8226 leukemia it was 9.61 µM; in the assay on HCC-2998 colon it was 7.19 µM; in the assay on DU-145 prostate, 6.93 µM; with OVCAR-4 ovarian, 7.32 µM. Besides, the TGI is 7.25 µM in the assay on UACC-62 melanoma, 21 µM in the assay with NCI/ADR-RES ovarian, 6.97 µM in the assay on A498 renal and 6.54 µM in the assay with SW-620 colon.
For `COc1cc2c3c(n(C)c(=O)c2cc1OC)-c1ccc(C#N)cc1C3=O`, the GI50 in the assay with SNB-19 CNS, in the assay on OVCAR-3 ovarian, in the assay on RPMI-8226 leukemia, in the assay on HCC-2998 colon, with DU-145 prostate and with OVCAR-4 ovarian was over 100 µM each time. The GI50 with UACC-62 melanoma is over 100 µM; in the assay with NCI/ADR-RES ovarian it was over 100 µM; with A498 renal, 64.7 µM; in the assay on SW-620 colon, over 100 µM. In addition, the TGI in the assay on SNB-19 CNS, in the assay with OVCAR-3 ovarian, in the assay on RPMI-8226 leukemia, with HCC-2998 colon, in the assay on DU-145 prostate and in the assay with OVCAR-4 ovarian was over 100 µM in each case. Moreover, the TGI in the assay with UACC-62 melanoma, in the assay with NCI/ADR-RES ovarian, with A498 renal and in the assay with SW-620 colon was over 100 µM throughout.

The record behind these values is PubChem BioAssay (NCI).
